Experimental data from PubChem BioAssay (NCI).
Values joined by “and” are separate entries in the source; they are usually repeats but may differ in a detail not shown here. Identical values can stand only once.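 The compound was tested at five concentrations on cells cultured in 96-well plates, with a 48-hour exposure period. Abbreviation: GI50, concentration required for 50% inhibition of growth. TGI marks complete inhibition of growth.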

test system: MDA-MB-468 breast; assay: DTP human tumour cell line panel, 48 h

Row | Compound | GI50 | TGI
1 | O=C(Nc1ccc(N2CCNCC2)cc1)c1[nH]ncc1Nc1ncnc2sc3c(c12)CCC3 | 481 nM | 2230 nM
2 | CCOC(=O)c1c2c(n3ccc(NC(=O)CCN4CCCC4)cc13)C(=O)c1ncccc1C2=O | 1710 nM | 3350 nM
3 | CC(=O)Nc1ccc2c(c1)c(C1=C(c3cn(C)c4ccccc34)C(=O)NC1=O)cn2C | 790 nM | > 25000 nM
4 | COc1ccc(-c2nn3ncccc3c2-c2ccnc(Nc3ccc(Cl)c(C(F)(F)F)c3)n2)cc1 | 5810 nM | > 20900 nM
5 | COc1cc2c(cc1OC)C(=O)/C(=C/c1cccc(OCC(=O)c3ccccc3)c1)C2 | 8210 nM | > 100000 nM
6 | COCCOc1ccc2ncc(C#Cc3cncc(C(=O)Nc4ccc(CN5CCN(C)CC5)c(C(F)(F)F)c4)c3)n2n1 | 988 nM | 2800 nM
7 | CNC(=O)c1cc(OC2CCC(NC(=O)Nc3ccc(Cl)c(C(F)(F)F)c3)CC2)ccn1 (configuration not stated) | 3350 nM | 14500 nM
8 | C=C1C(=O)O[C@H]2[C@H]1CC/C(COC(=O)c1cc3cc(F)ccc3[nH]1)=C\CC[C@@]1(C)O[C@@H]21 | 1860 nM | 3790 nM
9 | CCOC(=O)c1ccc(NC(=O)N2CC(C)OC(C)C2)cc1 (configuration not stated) | > 100000 nM | > 100000 nM
10 | O=C(NNc1nc(Cl)nc(N2CCN(C(c3ccccc3)c3ccccc3)CC2)n1)c1ccccc1 | 1900 nM | 6030 nM
11 | CS(=O)(=O)CCNCc1nc(-c2ccc3ncnc(Nc4ccc(F)c(Cl)c4)c3c2)cs1 | 257 nM | 2750 nM
12 | COc1ccc2nc(N/N=C(\C)c3ccccn3)cc(C)c2c1 | 233 nM | 815 nM
13 | Cc1ccc2[nH]cc(-c3nc(-c4c[nH]c5ncccc45)cs3)c2c1 | > 100000 nM | > 100000 nM
14 | COc1cc(C2C=C(c3cccc(NC(C)=O)c3)Nc3ncnn32)cc(OC)c1OC (configuration not stated) | 852 nM | > 23800 nM
15 | CCN(CC)CCOc1nc2ccc(OC)cc2c2c1-c1ccc(OC)cc1C2=O | 3370 nM | 21700 nM
16 | Cc1cc(-c2ncc(CC(=O)Nc3ccc(-c4cnccn4)cn3)cc2C)ccn1 | 3180 nM | 57500 nM
17 | O=c1oc2cc(OS(=O)(=O)c3ccc(F)cc3)ccc2c2c1CCCCC2 | 3870 nM | > 100000 nM
18 | O=[N+]([O-])C1C(c2ccccc2)C12c1ccccc1-c1ccccc12 (configuration not stated) | 582 nM | 13600 nM

Row | Compound | GI50 | TGI
19 | COc1ccc(-c2nc3sc(C)cn3c2/C=C/C(=O)c2cc(OC)c(OC)c(OC)c2)cc1 | 2760 nM | 9350 nM
20 | COc1ccc(Cl)cc1Nc1nc(C(F)(F)F)ccc1C(=O)N/N=C/c1c(Cl)cccc1Cl | 6660 nM | > 100000 nM
21 | CN(C)c1cccc2c(S(=O)(=O)N[C@H]3CC[C@H]4[C@@H]5CCc6cc(O)ccc6[C@H]5CC[C@]34C)cccc12 | 2100 nM | 9710 nM
22 | Cc1ccc(-[n+]2c3cc(N)c(C)cc3nc3cc(C)c(Nc4ccccc4)cc32)cc1 | 108 nM | 371 nM
23 | COc1cc(C2CC(c3ccc(C)cc3)=NN2C=O)ccc1Oc1ccnc2cc(Cl)ccc12 (configuration not stated) | 2590 nM | 37800 nM
24 | O=C1NCc2ccc3c(-c4cccc(Cl)c4)c[nH]c3c21 | 231 nM | > 23100 nM
25 | O=C(CSc1nc2ccccc2[nH]1)Nc1ccc(-c2nc3ccccc3s2)c(Cl)c1 | 4450 nM | > 100000 nM
26 | CNc1ccc2nc3ccc(=[N+](C)C)cc-3sc2c1 | 801 nM and 542 nM | 2890 nM and 3050 nM
27 | O=C(CCCCCCSc1nc(-c2ccccc2)cc(-c2ccc(Cl)cc2)n1)NO | 2020 nM | 5790 nM
28 | Cc1ccc(CNc2c3ccccc3nc3ccccc23)cc1 | 1490 nM | 3680 nM
29 | COC(=O)N[C@H]1CCc2c(Br)c(OC)c(OC)c(OC)c2-c2ccc(SC)c(=O)cc21 | < 10 nM | 1230 nM
30 | COc1cc(/C(C#N)=C/c2ccc3c(c2OC)OCO3)cc2c1OCO2 | 59.2 nM | 2070 nM
31 | COc1ccc2c(c1)[nH]c(=O)c1c3cc(C)c(C)cc3cn21 | 155 nM | 1590 nM
32 | C=C1C(=O)O[C@H]2[C@H]1CC/C(Cn1cc(CNC(=O)Cc3cn(C(=O)c4ccc(Cl)cc4)c4ccc(OC)cc34)nn1)=C\CC[C@@]1(C)O[C@@H]21 | 1220 nM | 2950 nM
33 | COc1cc(-c2nn(-c3ccc(NC(=O)c4ccc(Cl)c(Cl)c4)cc3)cc2-c2ccncc2)ccc1Cl | 4350 nM | > 100000 nM
34 | CC(=O)O[C@H]1CC[C@@]2(C)C(=CC[C@@H]3[C@@H]2CC[C@]2(C)C(c4cccnc4)=CC[C@@H]32)C1 | 2620 nM | 17500 nM
35 | CCOc1cc2ncc(C#N)c(Nc3ccc(OCc4cccc(F)c4)c(Cl)c3)c2cc1NC(=O)CC1CCSS1 (configuration not stated) | 427 nM | 1220 nM
36 | C=C1CC2(OC1=O)C(=O)N(CCCCCCCN1C(=O)C3(CC(=C)C(=O)O3)c3ccccc31)c1ccccc12 (configuration not stated) | 984 nM | 3740 nM
